Literature values in patent publication US6379706B2, “Rapidly disintegrating coated pellets with delayed release” (Roche Diagnostics GmbH, priority 1996, dated 2002).

Conditions: for solubility (in words): aqueous medium

| solubility (in words) | solubility in the intestinal juice (in words) (intestinal juice) | SMILES |
| --- | --- | --- |
| poorly soluble | particularly poorly soluble | COc1ccccc1OCCNCC(O)COc1cccc2[nH]c3ccccc3c12 (racemic) [Carvedilol, (+/−)-1-(9H-carbazol-4-yloxy)-3-[(2-(2-methoxyphenoxy)-ethyl)-amino]-2-propanol] |
| poorly soluble |  | CC(C)(Oc1ccc(CCNC(=O)c2ccc(Cl)cc2)cc1)C(=O)O [Bezafibrat, 2-{4-[2-[(4-chloro-benzoyl)-amino]ethyl]-phenoxy}-2-methylpropionic acid] |
| poorly soluble |  | Cc1cccc(Nc2ccncc2S(=O)(=O)NC(=O)NC(C)C)c1 [Torasemid, 1-isopropyl-3-[(4-m-toluidino-3-pyridyl)sulfonyl]-urea] |
